The values below come from patent US11352350B2, “IRAK degraders and uses thereof” (Kymera Therapeutics, Inc., priority 2018, dated 2022).

Where two headings read alike, the source gives them in different places.

The target of this assay is IRAK4 (Homo sapiens (Human), UniProt Q9NWZ3). Briefly: IRAK4 MSD degradation in OCI-LY10. The class given is cell-based. Here is the method: Degradation of IRAK4 in OCI-LY10 was quantitatively measured using Meso Scale Discovery technology. […] Compounds were then added to the assay plates with a final top concentration of 1 to 10 μM in a 1:3 dilution series with total of 8 doses. The assay plates were then incubated for 4 to 24 hours at 37° C. under 5% CO2. […] To prepare MSD assay plates (Meso Scale Discovery Catalog number L15XA-3), the plates were coated with […] capture antibody (mouse Anti-IRAK4 antibody [2H9], ab119942) in PBS, at 40 μL/well. […] Cell lysates were then added to MSD assay plates and the plates were incubated at room temperature for 1 hour. The plates were then washed 3 times with 150 μL/well TBST buffer and 25 μL/well primary detection antibody (rabbit Anti-IRAK4 antibody [Y279], from Abcam. Catalog number ab32511, […]). The assay plates were then incubated at room temperature for 1 hour, washed 3 times with 150 μL/well TBST buffer and 25 µL/well secondary detection antibody, SULFO-TAG anti-rabbit antibody were added (anti rabbit antibody from Meso Scale Discovery, Catalog number R32AB-1, 1 μg/mL). The assay plates were then incubated at room temperature for 1 hour, washed 3 times with 150 μL/well TB ST buffer, and 150 μL/well MSD reading buffer (Meso Scale Discovery catalog number R92TC-2) was added. The plates were then analyzed by a MSD reader (Meso Scale Discovery, Model Quick Plex SQ 120). The data was then analyzed by software Prism 7.0 from GraphPad and the dose-depended IRAK4 degradation were fit using a three-parameter logistic equation to calculate DC50.
IRAK4, sequence (Q9NWZ3 whole entry): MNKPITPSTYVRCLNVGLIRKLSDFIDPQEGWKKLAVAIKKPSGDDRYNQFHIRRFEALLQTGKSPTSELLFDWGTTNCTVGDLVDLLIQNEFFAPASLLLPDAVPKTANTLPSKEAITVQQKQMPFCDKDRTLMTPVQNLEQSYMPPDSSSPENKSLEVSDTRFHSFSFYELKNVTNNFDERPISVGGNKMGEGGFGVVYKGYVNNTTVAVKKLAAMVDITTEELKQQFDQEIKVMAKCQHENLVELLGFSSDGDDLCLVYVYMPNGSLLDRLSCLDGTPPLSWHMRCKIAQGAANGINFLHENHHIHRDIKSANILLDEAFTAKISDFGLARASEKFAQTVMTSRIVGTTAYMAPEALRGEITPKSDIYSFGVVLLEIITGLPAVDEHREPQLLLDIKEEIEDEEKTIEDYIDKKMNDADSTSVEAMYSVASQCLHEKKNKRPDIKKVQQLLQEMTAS

Setting [1] is: OCI-LY10, 4 hrs, MSD, read-out: IRAK4 MSD degradation in OCI-LY10 at 4 hrs: Average external-Abs DC50.
The mark [2] stands for this setting: OCI-LY10, 24 hrs, MSD, read-out: IRAK4 MSD degradation in OCI-LY10 at 24 hrs: Average external-Abs DC50.

By DC50 is commonly meant the concentration at which degradation of the target reaches its halfway point.

As to `Cn1c(=O)n(C2CCC(=O)NC2=O)c2cccc(CCCO[C@@H]3CCN(C[C@H]4CC[C@H](n5cc(NC(=O)c6coc(-c7ccnc(NCC8CC8)c7)n6)c(C(F)F)n5)CC4)C3)c21` (stereo partly drawn) [I-73], the DC50 under setting [1] was less than 10 nM.
On to `CN(CCC1CCN(Cc2cccc3c2n(C)c(=O)n3C2CCC(=O)NC2=O)CC1)C[C@H]1CC[C@H](n2cc(NC(=O)c3coc(-c4ccnc(NCC5CC5)c4)n3)c(C(F)F)n2)CC1` (stereo partly drawn) [I-79], for which, under setting [1], the 50% degradation concentration (DC50) is 10 to 100 nM.
Take `CN(CC1CCN(CCC#Cc2ccc3c(c2)n(C)c(=O)n3C2CCC(=O)NC2=O)CC1)C[C@H]1CC[C@H](n2cc(NC(=O)c3coc(-c4ccnc(NCC5CC5)c4)n3)c(C(F)F)n2)CC1` (stereo partly drawn) [I-57]: under setting [1], the DC50 is less than 10 nM.
Turning to `Cn1c(=O)n(C2CCC(=O)NC2=O)c2cccc(CN3CCC(OCC4CCN(C[C@H]5CC[C@H](n6cc(NC(=O)c7coc(-c8ccnc(NCC9CC9)c8)n7)c(C(F)F)n6)CC5)CC4)CC3)c21` (stereo partly drawn) [I-248], the DC50 under setting [1] is less than 10 nM.
Turning to `CN(CCCOCCCc1ccc2c(c1)oc(=O)n2C1CCC(=O)NC1=O)C[C@H]1CC[C@H](n2cc(NC(=O)c3coc(-c4ccnc(NCC5CC5)c4)n3)c(C(F)F)n2)CC1` (stereo partly drawn) [I-87], the half-maximal degradation concentration (DC50) under setting [1] was less than 10 nM.
With `CN(CCCOCCCc1cccc2c1n(C)c(=O)n2C1CCC(=O)NC1=O)C[C@H]1CC[C@H](n2cc(NC(=O)c3cccc(C(F)(F)F)n3)c(C(C)(C)O)n2)CC1` (stereo partly drawn) [I-71], the DC50 under setting [1] was 100 to 1000 nM.
For `Cn1c(=O)n(C2CCC(=O)NC2=O)c2cccc(CN3CCC(CC4CCN(C[C@H]5CC[C@H](n6cc(NC(=O)c7coc(-c8ccnc(NCC9CC9)c8)n7)c(C(F)F)n6)CC5)CC4)CC3)c21` (stereo partly drawn) [I-74], the DC50 under setting [1] is less than 10 nM.
In the case of `Cn1c(=O)n(C2CCC(=O)NC2=O)c2cccc(CN3CCC(CCN4CCC(n5cc(NC(=O)c6coc(-c7ccnc(NCC8CC8)c7)n6)c(C(F)F)n5)CC4)CC3)c21` (stereo not drawn) [I-264], the DC50 is, setting by setting: under setting [1], less than 10 nM; under setting [2], less than 10 nM.
On to `CN(CC[C@H]1CN(CCCc2ccc3c(c2)n(C)c(=O)n3C2CCC(=O)NC2=O)CCO1)C[C@H]1CC[C@H](n2cc(NC(=O)c3coc(-c4ccnc(NCC5CC5)c4)n3)c(C(F)F)n2)CC1` (stereo partly drawn) [I-96], for which the DC50 under setting [1] fell in the range of 10 to 100 nM.
As to `Cn1c(=O)n(C2CCC(=O)NC2=O)c2cccc(CCCO[C@H]3CCN(C[C@H]4CC[C@H](n5cc(NC(=O)c6coc(-c7ccnc(NCC8CC8)c7)n6)c(C(F)F)n5)CC4)C3)c21` (stereo partly drawn) [I-72], under setting [1], the DC50 fell in the range of 10 to 100 nM.
Regarding `CN(CCOC(=O)NCc1ccc2c(c1)n(C)c(=O)n2C1CCC(=O)NC1=O)C[C@H]1CC[C@H](n2cc(NC(=O)c3coc(-c4ccnc(NCC5CC5)c4)n3)c(C(F)F)n2)CC1` (stereo partly drawn) [I-91], the DC50 under setting [1] fell in the range of 100 to 1000 nM.
For `Cn1c(=O)n(C2CCC(=O)NC2=O)c2cccc(CCCOCCOCCOCCOCC(=O)N3CCN([C@H]4CC[C@H](Nc5ncnn6ccc(C7CCOCC7)c56)CC4)CC3)c21` (stereo partly drawn) [I-19], the DC50 runs as follows: under setting [1], greater than 1000 nM; under setting [2], greater than 1000 nM.
Regarding `CN(CCCOCC#Cc1cccc2c1n(C)c(=O)n2C1CCC(=O)NC1=O)C[C@H]1CC[C@H](n2cc(NC(=O)c3coc(-c4ccnc(NCC5CC5)c4)n3)c(C(F)F)n2)CC1` (stereo partly drawn) [I-88], the DC50 under setting [1] was in the range of 100 to 1000 nM.
Turning to `CN(CCOCCCc1cccc2c1N(C)C(=O)C2C1CCC(=O)NC1=O)CC[C@H]1CC[C@H](n2cc(NC(=O)c3coc(-c4ccnc(NCC5CC5)c4)n3)c(C(F)F)n2)CC1` (stereo partly drawn) [I-154], the DC50 under setting [1] is 10 to 100 nM and the DC50 under setting [2] lay in the range of 10 to 100 nM.
Take `Cn1c(=O)n(C2CCC(=O)NC2=O)c2ccc(CN3CCC(CCC(=O)N4CCC(n5cc(NC(=O)c6coc(-c7ccnc(NCC8CC8)c7)n6)c(C(F)F)n5)CC4)CC3)cc21` (stereo not drawn) [I-255]: the DC50 reads like this: under setting [1], 10 to 100 nM; under setting [2], less than 10 nM.
As to `CN(C[C@H]1CN(Cc2cccc3c2n(C)c(=O)n3C2CCC(=O)NC2=O)CCO1)C[C@H]1CC[C@H](n2cc(NC(=O)c3coc(-c4ccnc(NCC5CC5)c4)n3)c(C(F)F)n2)CC1` (stereo partly drawn) [I-77], the half-maximal degradation concentration (DC50) under setting [1] is 10 to 100 nM.
As to `CN(CC[C@@H]1CN(CCCc2ccc3c(c2)n(C)c(=O)n3C2CCC(=O)NC2=O)CCO1)C[C@H]1CC[C@H](n2cc(NC(=O)c3coc(-c4ccnc(NCC5CC5)c4)n3)c(C(F)F)n2)CC1` (stereo partly drawn) [I-97], the DC50 under setting [1] is less than 10 nM.
With `Cn1c(=O)n(C2CCC(=O)NC2=O)c2cccc(CCCOC3CCN(C[C@H]4CC[C@H](n5cc(NC(=O)c6cnn7cccnc67)c(C(F)F)n5)CC4)CC3)c21` (stereo partly drawn) [I-251], the half-maximal degradation concentration (DC50) under setting [1] is 100 to 1000 nM.
Take `Cn1c(=O)n(C2CCC(=O)NC2=O)c2ccc(CCCN3CCO[C@@H](CNC[C@H]4CC[C@H](n5cc(NC(=O)c6coc(-c7ccnc(NCC(F)(F)F)c7)n6)c(C(C)(C)O)n5)CC4)C3)cc21` (stereo partly drawn) [I-60]: the DC50 under setting [1] is 10 to 100 nM.
Regarding `CC(C)N(CCCOCCCc1cccc2c1n(C)c(=O)n2C1CCC(=O)NC1=O)C[C@H]1CC[C@H](n2cc(NC(=O)c3coc(-c4ccnc(NCC5CC5)c4)n3)c(C(F)F)n2)CC1` (stereo partly drawn) [I-63], the DC50 under setting [1] is 10 to 100 nM.
For the molecule `Cn1c(=O)n(C2CCC(=O)NC2=O)c2ccc(CN3CCC(CCO[C@H]4C[C@H](N(C)C[C@H]5CC[C@H](n6cc(NC(=O)c7coc(-c8ccnc(NCC9CC9)c8)n7)c(C(F)F)n6)CC5)C4)CC3)cc21` (stereo partly drawn) [I-238], under setting [1], the DC50 lay within 10 to 100 nM.
Same read-out and setting: with `Cn1c(=O)n(C2CCC(=O)NC2=O)c2cccc(CN3CCC(OC4CCN(C[C@H]5CC[C@H](n6cc(NC(=O)c7coc(-c8ccnc(NCC9CC9)c8)n7)c(C(F)F)n6)CC5)CC4)CC3)c21` (stereo partly drawn) [I-256] the figure was less than 10 nM; with `CN(CCCOCCCc1ccc2c(c1)n(C)c(=O)n2C1CCC(=O)NC1=O)C[C@H]1CC[C@H](n2cc(NC(=O)c3coc(-c4ccnc(NCC5CC5)c4)n3)c(C(C)(C)O)n2)CC1` (stereo partly drawn) [I-83], 100 to 1000 nM; with `Cn1c(=O)n(C2CCC(=O)NC2=O)c2cccc(CCCOCCCN(C[C@H]3CC[C@H](n4cc(NC(=O)c5coc(-c6ccnc(NCC7CC7)c6)n5)c(C(F)F)n4)CC3)C3CC3)c21` (stereo partly drawn) [I-64], 100 to 1000 nM.
Still for that read-out and setting: the result for `O=C1CCC(n2c3ccc(CCCN4CC5(CCN(C(=O)[C@H]6CC[C@H](n7cc(NC(=O)c8cnn9ccc(N%10C[C@H]%11C[C@@H]%10CO%11)nc89)c(C(F)F)n7)CC6)CC5)C4)cc3c3cccnc32)C(=O)N1` (stereo partly drawn) [I-388] reads 10 to 100 nM; that for `Cn1c(=O)n(C2CCC(=O)NC2=O)c2cccc(CN3CCC(CCCN4CCC(n5cc(NC(=O)c6coc(-c7ccnc(NCC8CC8)c7)n6)c(C(F)F)n5)CC4)CC3)c21` (stereo not drawn) [I-253], 10 to 100 nM; that for `CN(C[C@@H]1CN(Cc2cccc3c2n(C)c(=O)n3C2CCC(=O)NC2=O)CCO1)C[C@H]1CC[C@H](n2cc(NC(=O)c3coc(-c4ccnc(NCC5CC5)c4)n3)c(C(F)F)n2)CC1` (stereo partly drawn) [I-78], 10 to 100 nM.
As for `CN(CCOCC1CCN(c2ccc3c(c2)n(C)c(=O)n3C2CCC(=O)NC2=O)CC1)C[C@H]1CC[C@H](n2cc(NC(=O)c3coc(-c4ccnc(NCC5CC5)c4)n3)c(C(F)F)n2)CC1` (stereo partly drawn) [I-56], the DC50 under setting [1] lay in the range of 100 to 1000 nM.
With `CN(CCCOCCCc1cccc2c1n(C)c(=O)n2C1CCC(=O)NC1=O)C[C@H]1CC[C@H](n2cc(NC(=O)c3coc(-c4ccncc4)n3)c(C(F)F)n2)CC1` (stereo partly drawn) [I-69], under setting [1], the DC50 lay in the range of 100 to 1000 nM.
Same read-out and setting: the result for `O=C1CCC(n2c3cccc(CCCOCCOCCNC[C@H]4CC[C@H](n5cc(NC(=O)c6coc(-c7ccnc(NCC8CC8)c7)n6)c(C(F)F)n5)CC4)c3c3cccnc32)C(=O)N1` (stereo partly drawn) [I-93] reads 10 to 100 nM.
`Cn1c(=O)n(C2CCC(=O)NC2=O)c2ccc(CCCOCCCCCN3CCC(n4cc(NC(=O)c5coc(-c6ccnc(NCC7CC7)c6)n5)c(C(F)F)n4)CC3)cc21` (stereo not drawn) [I-261]: the DC50 is less than 10 nM under setting [1] and less than 10 nM under setting [2].
Consider `Cn1c(=O)n(C2CCC(=O)NC2=O)c2cccc(CCCOCCCCCN3CCC(n4cc(NC(=O)c5coc(-c6ccnc(NCC7CC7)c6)n5)c(C(F)F)n4)CC3)c21` (stereo not drawn) [I-262], for which the half-maximal degradation concentration (DC50) reads like this: under setting [1], less than 10 nM; under setting [2], less than 10 nM.
`CNc1cc(-c2nc(C(=O)Nc3cn([C@H]4CC[C@H](CN(C)CCCOCCCc5cccc6c5n(C)c(=O)n6C5CCC(=O)NC5=O)CC4)nc3C(F)F)co2)ccn1` (stereo partly drawn) [I-68]: the DC50 under setting [1] lay within 10 to 100 nM.
On to `CN1CCN(c2ccn3ncc(C(=O)Nc4cn([C@H]5CC[C@H](CN6CCC(OCCCc7cccc8c7n(C)c(=O)n8C7CCC(=O)NC7=O)CC6)CC5)nc4C(F)F)c3c2)CC1` (stereo partly drawn) [I-258], for which the half-maximal degradation concentration (DC50) under setting [1] is 10 to 100 nM and the half-maximal degradation concentration (DC50) under setting [2] is 10 to 100 nM.
On to `CN(CCOCCNCc1ccc2c(c1)n(C)c(=O)n2C1CCC(=O)NC1=O)C(=O)[C@H]1CC[C@H](n2cc(NC(=O)c3coc(-c4ccnc(NCC5CC5)c4)n3)c(C(F)F)n2)CC1` (stereo partly drawn) [I-55], for which, under setting [1], the half-maximal degradation concentration (DC50) is less than 10 nM.
On to `CN(CCCCc1cccc2c1n(C)c(=O)n2C1CCC(=O)NC1=O)C[C@H]1CC[C@H](n2cc(NC(=O)c3coc(-c4ccnc(NCC5CC5)c4)n3)c(C(F)F)n2)CC1` (stereo partly drawn) [I-66], for which, under setting [1], the half-maximal degradation concentration (DC50) is less than 10 nM.
`O=C1CCC(N2C(=O)c3ccc(NCC4CC5(CCN(C[C@H]6CC[C@H](n7cc(NC(=O)c8cnn9ccc(N%10C[C@H]%11C[C@@H]%10CO%11)nc89)c(C(F)F)n7)CC6)CC5)C4)cc3C2=O)C(=O)N1` (stereo partly drawn) [I-556]: the DC50 is, setting by setting: (OCI-LY10, 4 hrs, read-out: IRAK4 MSD degradation in OCI-LY10 at 4 hrs: DC50) 10 to 100 nM; (OCI-LY10, 24 hrs, read-out: IRAK4 MSD degradation in OCI-LY10 at 24 hrs: DC50) less than 10 nM.
